Our source for the inhibition and Activity values is ChEMBL document CHEMBL4393679, “Structure-Guided Drug Design of 6-Substituted Adenosine Analogues as Potent Inhibitors of Mycobacterium tuberculosis Adenosine Kinase” (J Med Chem, 2019).

Activity calls are given as the source filed them. The rule behind the calls is not given here.

Data set [1] deals with Adenosine kinase (Mycobacterium tuberculosis (strain ATCC 25618 / H37Rv)) (UniProt P9WID5). Briefly: Competitive-inhibition of wild-type N-terminal TEV cleavage site-fused/His-tagged Mycobacterium tuberculosis H37Rv adenosine kinase expressed in Escherichia coli BL21 (DE3) using varying levels of adenosine as substrate in presence of ATP and PEP by pyruvate kinase-lactate dehydrogenase-coupled UV-vis spectrophotometric based Cheng-Prusoff equation analysis.
Adenosine kinase (Mycobacterium tuberculosis (strain ATCC 25618 / H37Rv)), sequence (P9WID5 2-324 limits assumed): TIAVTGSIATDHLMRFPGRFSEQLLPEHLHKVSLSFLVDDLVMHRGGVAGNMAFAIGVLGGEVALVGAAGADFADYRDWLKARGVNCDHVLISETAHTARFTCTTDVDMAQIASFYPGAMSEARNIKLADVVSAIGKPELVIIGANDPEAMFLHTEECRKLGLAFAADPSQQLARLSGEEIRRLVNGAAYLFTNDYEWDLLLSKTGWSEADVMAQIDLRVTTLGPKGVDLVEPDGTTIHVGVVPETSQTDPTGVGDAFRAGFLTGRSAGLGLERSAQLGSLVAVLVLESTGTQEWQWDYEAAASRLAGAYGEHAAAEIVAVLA

Data set [2] in a line: Toxicity in ND4 Swiss Webster mouse at 10 mg/kg, po administered as single dose via gavage. Type of data set: organism-based. The conditions noted are these: in vivo.
Data set [3] can be described thus: Toxicity in ND4 Swiss Webster mouse assessed as change in body weight at 50 to 200 mg/kg, po administered once daily via gavage for 3 days measured twice daily during compound dosing. The conditions noted are these: in vivo, 72 h. Type of data set: organism-based.
Data set [4] in a line: Toxicity in ND4 Swiss Webster mouse at 50 to 200 mg/kg, po administered once daily via gavage for 3 days measured twice daily during compound dosing. Type of data set: organism-based. The conditions noted are these: in vivo, 72 h.
Data set [5] concerns the target Adenosine kinase (Mycobacterium tuberculosis (strain ATCC 25618 / H37Rv)) (UniProt P9WID5). Briefly: Inhibition of wild-type N-terminal TEV cleavage site-fused/His-tagged Mycobacterium tuberculosis H37Rv adenosine kinase expressed in Escherichia coli BL21 (DE3) at 12.5 uM using adenosine as substrate in presence of ATP and PEP by pyruvate kinase-lactate dehydrogenase coupled UV-vis spectrophotometric method relative to control.

By inhibition is commonly meant the change of the read-out against control, counted positive when it falls.

As for `OC[C@H]1O[C@@H](n2cnc3c(N4CCN(c5ccc(-c6ccccc6)cc5)CC4)ncnc32)[C@H](O)[C@@H]1O`, in data set [1], the inhibition result was “Active”. Further, the Activity entry in data set [2], in data set [3] and in data set [4] was “Non-Toxic” in each case.
In the case of `Cc1ccc(S(=O)(=O)NC[C@H]2O[C@@H](n3cnc4c(N5CCN(c6ccc(C(F)(F)F)cc6)CC5)ncnc43)[C@H](O)[C@@H]2O)cc1`, the inhibition in data set [5] stood at 53%.
